Measurements taken from patent publication US10774039B2, “Cyclopropene amino acids and methods” (United Kingdom Research and Innovation, priority 2014, dated 2020).

Tests used:
PylRS/tRNACUA pair = PylRS/tRNACUA pair (Methanosarcina mazei, UniProt Q8PWY1); experiment: Dual luciferase reporter assay on ovary extract of flies fed amino acid; format: in vivo, D. melanogaster; parameters: expressed in transfected cells; host or cells: transgenic Drosophila melanogaster, ovaries (UAS-PylRS driven by nos-vp16-GAL4); conditions: flies fed 10 mM amino acid
Sequence of PylRS/tRNACUA pair (Q8PWY1 whole entry, the tested form may be a part): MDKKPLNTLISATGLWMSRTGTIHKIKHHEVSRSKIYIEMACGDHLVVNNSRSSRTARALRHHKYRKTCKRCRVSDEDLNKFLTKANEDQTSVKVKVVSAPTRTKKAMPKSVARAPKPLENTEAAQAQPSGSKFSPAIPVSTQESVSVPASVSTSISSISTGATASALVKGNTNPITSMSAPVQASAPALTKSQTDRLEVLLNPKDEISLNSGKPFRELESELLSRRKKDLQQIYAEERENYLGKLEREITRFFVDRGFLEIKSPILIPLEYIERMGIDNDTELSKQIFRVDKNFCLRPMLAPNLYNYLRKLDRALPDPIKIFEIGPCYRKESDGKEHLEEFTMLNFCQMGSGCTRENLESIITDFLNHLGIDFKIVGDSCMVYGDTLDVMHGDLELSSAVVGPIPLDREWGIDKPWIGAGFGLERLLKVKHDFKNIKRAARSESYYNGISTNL
Method: Dual luciferase assay on ovary extract from 10 female flies expressing Triple-Rep-L in the presence or absence of 10 mM 1 or 10 mM 3. […] The error bars represent the standard deviation of 3 technical replicates from a single biological replicate. FIG. 10B: Site-specific incorporation of 3 (or 1) into GFP_TAG_mCherry-HA in flies expressing PylRS/PyltRNACUA. The full-length protein resulting from unnatural amino acid incorporation is detected by anti-HA western blot. FIG. 10C: Specific labelling of encoded 3 with tetrazine probes. Flies were fed with no amino acid, amino acid 1 (500 flies) or amino acid 3 (100 flies). […] The full-length protein containing the unnatural amino acid was immunoprecipitated from lysed ovaries with anti-GFP beads. The beads were labelled (4g, 4 μM, 200 μL, PBS, RT, 2 h) washed.
Transgenic lines were created by P element insertion using a Drosophila embryo injection service (BestGene Inc.). Lines were generated using the following plasmids: pFT58 (Ala), pFT60 (Ser), pFT62 (Leu) and pFT63 (Met). nos-Gal4-VP16 (Bloomington 4937) and MS1096-Gal4 (Bloomington 8860) were used as Gal4 drivers. All flies were grown at 25° C. on standard Iberian medium. Flies were fed unnatural amino acids by mixing dried yeast with the appropriate concentration of amino acid (usually 10 mM) diluted in dH2O to make a paste. Ovaries were prepared from females that were grown on Iberian fly food supplemented with a yeast paste with or without the amino acid for a minimum of 48 hours. For proteome labelling experiments transgenic male flies of constructs FT58, FT60, FT62 and FT63 were crossed with nos-vp16-GAL4 virgins to generate FT58/nos-vp16-GAL4, FT60/nos-vp16-GAL4, FT62/nos-vp16-GAL4 and FT63/nos-vp16-GAL4 respectively.
Ovaries from 10 females of Triple Rep-L flies recombined with nos-Gal4-VP16 fed 3, 1 or no amino acid were dissected in 100 μl 1× Passive lysis buffer and processed for luciferase assays as previously described^20.

PylRS, PyltRNAUUU = experiment: Time-dependent proteome incorporation of 3 via SORT-M in E. coli, detected with 4a; format: cell-based; conditions: AAA codon, detection with 4a
Method: Chemically competent DH10B cells were transformed with two plasmids: pBKwtPylRS necessary for expression of PylRS, and pBAD_wtT4LMbPylTUUU plasmid that is required for expression of PyltRNAUUU. pBAD_wtT4L_MbPylTUUU plasmid also contains the gene for expression of T4 lysozyme that is downstream of arabinose-inducible promoter. After transformation, cells were recovered in 1 ml SOB medium for one hour at 37° C. prior to inoculation in 10 ml LB-KT (LB media with 50 μg ml^−1 kanamycin, and 25 μg tetracycline). The culture was incubated overnight (37° C., 250 rpm, 12 h) and subsequently diluted to an OD600˜0.3 in 30 mL LB-KT1/2 (LB media with 25 μg ml^−1 kanamycin, and 12.5 μg ml^−1 tetracycline) supplemented with 3 at different concentrations, 0, 0.1, 0.5 mM. The cultures was incubated (37° C., 250 rpm) for 1 h, when OD600 reached approximately 0.6. 2 ml culture aliquot was collected in a separate tube for each of three cultures. This is the pre-induction culture (lane labelled as 1 in the gel image). Subsequently arabinose was added at a final concentration of 0.2% (v/v) to induce expression of T4 lysozyme and culture aliquots of 2 mL were collected every hour (lanes labelled as 2, 3 and 4 corresponding to 1, 2 and 3 h culture collection after induction). […] Samples were analysed by 4-12% SDS-PAGE and fluorescent images were acquired using Typhoon Trio phosphoimager (GE Life Sciences) […]

Compound: CC1=CC1COC(=O)NCCCC[C@H](N)C(=O)O (stereo partly drawn) [amino acid 3, N^ε-[((2-methylcycloprop-2-en-1-yl)methoxy)carbonyl]-L-lysine]
- dual luciferase signal compared with 1 (PylRS/tRNACUA pair): larger
- luciferase signal dependent on amino acid addition (PylRS/tRNACUA pair): strong luciferase signal
- time to substantial labelling after amino acid addition (PylRS, PyltRNAUUU): ≤ 1 h
